Experiments:
[1] = target: T1, Ubiquitin carboxyl-terminal hydrolase 25 (Homo sapiens, UniProt Q9UHP3); assay: Inhibition of recombinant C-terminal 6-His tagged human USP25 using ubiquitin-rhodamine 110 as substrate preincubated for 30 mins followed by substrate addition and measured after 45 mins by fluorescence based assay
T1 sequence (Q9UHP3 whole entry): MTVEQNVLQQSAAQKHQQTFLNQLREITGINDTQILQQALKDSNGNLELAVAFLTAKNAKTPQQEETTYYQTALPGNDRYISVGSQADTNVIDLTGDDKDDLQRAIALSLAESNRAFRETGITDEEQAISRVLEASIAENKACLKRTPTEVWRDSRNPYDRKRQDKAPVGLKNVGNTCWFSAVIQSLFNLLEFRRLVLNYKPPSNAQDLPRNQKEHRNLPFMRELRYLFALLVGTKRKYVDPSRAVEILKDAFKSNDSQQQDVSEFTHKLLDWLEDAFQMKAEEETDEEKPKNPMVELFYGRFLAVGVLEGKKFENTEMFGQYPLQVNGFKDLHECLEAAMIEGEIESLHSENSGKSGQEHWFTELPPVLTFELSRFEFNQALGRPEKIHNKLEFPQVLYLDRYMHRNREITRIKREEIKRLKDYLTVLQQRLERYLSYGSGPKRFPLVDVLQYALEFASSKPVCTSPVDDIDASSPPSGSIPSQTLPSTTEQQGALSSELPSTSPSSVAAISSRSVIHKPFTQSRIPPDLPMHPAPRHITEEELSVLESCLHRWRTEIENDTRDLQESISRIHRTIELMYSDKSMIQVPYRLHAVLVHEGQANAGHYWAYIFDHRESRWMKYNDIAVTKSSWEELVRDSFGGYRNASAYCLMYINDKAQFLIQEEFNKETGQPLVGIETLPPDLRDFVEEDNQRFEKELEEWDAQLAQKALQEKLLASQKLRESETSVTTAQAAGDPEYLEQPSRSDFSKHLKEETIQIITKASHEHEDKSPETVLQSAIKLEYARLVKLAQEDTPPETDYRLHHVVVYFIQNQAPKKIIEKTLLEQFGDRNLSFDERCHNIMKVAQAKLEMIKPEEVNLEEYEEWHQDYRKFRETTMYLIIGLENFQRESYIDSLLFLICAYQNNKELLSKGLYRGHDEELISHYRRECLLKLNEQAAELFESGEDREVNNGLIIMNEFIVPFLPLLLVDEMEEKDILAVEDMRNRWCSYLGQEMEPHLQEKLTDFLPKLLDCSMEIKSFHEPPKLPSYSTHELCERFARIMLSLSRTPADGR

[2] = target: T2, Ubiquitin carboxyl-terminal hydrolase 28 (Homo sapiens, UniProt Q96RU2); assay: Inhibition of TEV-cleavable hexa-histidine tagged USP28 (1 to 1077 residues) (unknown origin) using ubiquitin-rhodamine 110 as substrate and measured after 90 mins by fluorescence based assay
T2 sequence (Q96RU2 whole entry): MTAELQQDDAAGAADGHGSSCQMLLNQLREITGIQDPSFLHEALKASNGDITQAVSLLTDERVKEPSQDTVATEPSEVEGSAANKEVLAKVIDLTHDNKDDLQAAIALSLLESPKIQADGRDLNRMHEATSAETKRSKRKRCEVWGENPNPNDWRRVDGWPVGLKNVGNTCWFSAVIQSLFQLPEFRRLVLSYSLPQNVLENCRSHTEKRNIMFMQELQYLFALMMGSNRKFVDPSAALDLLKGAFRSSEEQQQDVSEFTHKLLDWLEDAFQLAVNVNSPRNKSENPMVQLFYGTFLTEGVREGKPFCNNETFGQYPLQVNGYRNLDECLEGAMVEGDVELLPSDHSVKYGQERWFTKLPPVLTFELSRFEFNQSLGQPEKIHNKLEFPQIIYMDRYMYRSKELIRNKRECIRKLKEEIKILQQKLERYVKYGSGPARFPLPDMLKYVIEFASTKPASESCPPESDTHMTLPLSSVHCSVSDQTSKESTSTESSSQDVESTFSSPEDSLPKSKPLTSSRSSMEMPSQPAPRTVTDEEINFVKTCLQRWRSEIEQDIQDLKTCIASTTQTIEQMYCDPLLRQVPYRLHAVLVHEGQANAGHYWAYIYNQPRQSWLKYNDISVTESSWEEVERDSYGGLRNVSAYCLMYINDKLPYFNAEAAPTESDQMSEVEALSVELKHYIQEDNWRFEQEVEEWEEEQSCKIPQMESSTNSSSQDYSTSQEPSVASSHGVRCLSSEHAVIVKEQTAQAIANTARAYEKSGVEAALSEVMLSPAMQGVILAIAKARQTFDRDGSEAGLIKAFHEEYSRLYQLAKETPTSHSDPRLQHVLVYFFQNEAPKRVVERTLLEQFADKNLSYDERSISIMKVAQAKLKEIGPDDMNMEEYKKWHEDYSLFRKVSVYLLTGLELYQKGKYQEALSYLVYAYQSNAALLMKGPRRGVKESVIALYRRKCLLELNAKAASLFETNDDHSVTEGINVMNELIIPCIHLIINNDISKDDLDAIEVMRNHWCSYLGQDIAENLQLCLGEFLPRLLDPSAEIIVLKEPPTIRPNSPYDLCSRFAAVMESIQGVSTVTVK

SMILES	IC50 [1] [µM]	IC50 [2] [µM]
Cc1ccc2c(N)c(C(=O)NCCc3ccc(N4CCC5(CC4)CNC5)cc3)sc2n1	0.2 to 2	< 0.2
CN[C@H]1CCN(c2ccc(CCNC(=O)c3sc4nc(C)ccc4c3N)cc2)C1	0.2 to 2	0.2 to 2
Cc1ccc2c(N)c(C(=O)NCCc3ccc(N4CCC5(CCNC5)C4)cc3)sc2n1 (centres undefined)	2 to 10	0.2 to 2
Cc1ccc2c(N)c(C(=O)NCCc3ccc(N4CCCC45CCCNC5)cc3)sc2n1 (centres undefined)	0.2 to 2	< 0.2
Cc1ccc2c(N)c(C(=O)NCCc3ccc(N4CCCNCC4)cc3)sc2n1	0.2 to 2	0.2 to 2
Cc1ccc2c(N)c(C(=O)NCCc3ccc(N4CCNCC4)c(-c4cnn(C)c4)c3)sc2n1	2 to 10	0.2 to 2
Cc1ccc2c(N)c(C(=O)NCCc3ccc(N4CCN[C@H](C)C4)cc3)sc2n1	0.2 to 2	< 0.2
Cc1ccc2c(N)c(C(=O)NCCc3ccc(N4CCNCC4)c(-c4cncnc4)c3)sc2n1	0.2 to 2	0.2 to 2
Cc1ccc2c(N)c(C(=O)NCCc3ccc(N4CCC5(CCNC5)CC4)cc3)sc2n1		0.2 to 2
Cc1ccc2c(N)c(C(=O)NCCc3ccc(N4C[C@H]5CNC[C@H]5C4)cc3)sc2n1	0.2 to 2	0.2 to 2
Cc1cccc(-c2cc(CCNC(=O)c3sc4nc(C)ccc4c3N)ccc2N2CCNCC2)c1	2 to 10	10 to 25
Cc1ccc2c(N)c(C(=O)NCCc3ccc(N4CCCC5(CCNC5)C4)cc3)sc2n1 (centres undefined)	0.2 to 2	0.2 to 2
Cc1ccc2c(N)c(C(=O)NCCc3ccc(N(C)CC4CCCNC4)cc3)sc2n1 (centres undefined)	0.2 to 2	0.2 to 2
Cc1ccc2c(N)c(C(=O)NCCc3ccc(N4CCNCC4)c(-c4cccc(Cl)c4)c3)sc2n1	2 to 10	2 to 10
Cc1ccc2c(N)c(C(=O)NCCc3ccc(N4CCNCC4)c(-c4ccc(Cl)cc4)c3)sc2n1	2 to 10	2 to 10
Cc1ccc2c(N)c(C(=O)NCCc3ccc(N4CCNCC4)c(-c4ccccc4F)c3)sc2n1	2 to 10	0.2 to 2
Cc1ccc2c(N)c(C(=O)NCCc3ccc(N4CCC5(CNCCO5)C4)cc3)sc2n1 (centres undefined)	2 to 10	0.2 to 2
CNC1CCN(c2ccc(CCNC(=O)c3sc4nc(C)ccc4c3N)cc2)CC1		0.2 to 2
Cc1ccc2c(N)c(C(=O)NCCc3ccc(N4CCC5(CCNCC5)C4)cc3)sc2n1	2 to 10	0.2 to 2
Cc1ccc2c(N)c(C(=O)NCCc3ccc(N4CCN[C@@H](C(C)C)C4)cc3)sc2n1	0.2 to 2	0.2 to 2
Cc1ccc2c(N)c(C(=O)NCCc3ccc(N4CC5(CNC5)C4)cc3)sc2n1	2 to 10	0.2 to 2

SMILES	IC50 [1] [µM]	IC50 [2] [µM]
CN[C@@H]1CCN(c2ccc(CCNC(=O)c3sc4nc(C)ccc4c3N)cc2)C1		0.2 to 2
Cc1ccc2c(N)c(C(=O)NCCc3ccc(N4CCOC5(CCNCC5)C4)cc3)sc2n1		0.2 to 2
Cc1ccc2c(N)c(C(=O)NCCc3ccc(N4CCN[C@H](C(C)C)C4)cc3)sc2n1	0.2 to 2	< 0.2
Cc1ccc2c(N)c(C(=O)NCCc3ccc(N4CCCC5(CCNCC5)C4)cc3)sc2n1	0.2 to 2	< 0.2
COCCn1cc(-c2cc(CCNC(=O)c3sc4nc(C)ccc4c3N)ccc2N2CCNCC2)cn1	2 to 10	2 to 10
CC(=O)Nc1ccc2c(N)c(C(=O)NCCc3ccc(N4CCNCC4)cc3)sc2n1		2 to 10
Cc1ccc2c(N)c(C(=O)NCCc3ccc(N4CCC5(CCCNC5)CC4)cc3)sc2n1	0.2 to 2	0.2 to 2
Cc1ccc2c(N)c(C(=O)NCCc3ccc(N4CC5(CCCN5)C4)cc3)sc2n1	0.2 to 2	< 0.2
Cc1ccc2c(N)c(C(=O)NCCc3ccc(N4CCCC5(CCCNC5)C4)cc3)sc2n1 (centres undefined)	0.2 to 2	0.2 to 2
Cc1ccc2c(N)c(C(=O)NCCc3ccc(N[C@@H]4CCNC4)cc3)sc2n1		< 0.2
Cc1ccc2c(N)c(C(=O)NCCc3ccc(N4CC[C@H]5CNC[C@H]5C4)cc3)sc2n1		0.2 to 2
Cc1ccc2c(N)c(C(=O)NCCc3ccc(N4CCNCC4)c(-c4cccc(F)c4)c3)sc2n1	2 to 10	2 to 10
Cc1ccc2c(N)c(C(=O)NCCc3ccc(N4CCNC[C@@H]4C)cc3)sc2n1		< 0.2
Cc1ccc2c(N)c(C(=O)NCCc3ccc(N4CCNCC4)c(-c4ccccc4Cl)c3)sc2n1	0.2 to 2	0.2 to 2
Cc1ccc2c(N)c(C(=O)NCCc3ccc(N4CCNCC4)c(-c4ccc(F)cc4)c3)sc2n1	2 to 10	2 to 10
Cc1ccc2c(N)c(C(=O)NCCc3ccc(N4CCNCC4)c(-c4ccccc4C)c3)sc2n1	2 to 10	0.2 to 2
Cc1ccc2c(N)c(C(=O)NCCc3ccc(N4CCNC[C@H]4C)cc3)sc2n1	< 0.2	< 0.2
Cc1ccc2c(N)c(C(=O)NCCc3ccc(N4CCC(NC5CC5)C4)cc3)sc2n1 (centres undefined)	0.2 to 2	0.2 to 2
Cc1cc(-c2cc(CCNC(=O)c3sc4nc(C)ccc4c3N)ccc2N2CCNCC2)ccn1	10 to 25	2 to 10
Cc1ccc(-c2cc(CCNC(=O)c3sc4nc(C)ccc4c3N)ccc2N2CCNCC2)cc1	2 to 10	2 to 10
